Publication PMC9562188, “Characterization of the Aquaporin-9 Inhibitor RG100204 In Vitro and in db/db Mice” (Cells, 2022)

Molecular target: T1, Aquaporin-9 (AQP9) (Homo sapiens, UniProt O43315)
T1 construct: 10×His-hAQP9 (N-terminal 10-histidine tag), purified from P. pastoris, reconstituted in proteoliposomes
T1 sequence (O43315 1-295): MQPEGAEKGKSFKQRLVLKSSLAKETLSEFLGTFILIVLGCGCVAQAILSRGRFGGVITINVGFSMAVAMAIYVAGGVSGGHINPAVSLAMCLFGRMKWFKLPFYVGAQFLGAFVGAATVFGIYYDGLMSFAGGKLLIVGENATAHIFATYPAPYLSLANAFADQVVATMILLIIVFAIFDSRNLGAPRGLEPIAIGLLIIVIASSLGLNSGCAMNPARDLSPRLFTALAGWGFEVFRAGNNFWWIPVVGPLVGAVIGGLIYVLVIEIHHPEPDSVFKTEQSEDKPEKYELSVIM
Experiment: stopped-flow light scattering of purified AQP9 proteoliposomes ([…], −[…] Pgly); IC50 (water permeability; glycerol […]) from calcein quenching in human AQP9-expressing CHO cells
Assay type: cell-based

IC50: ~200 nM
Compound: O=C(CCc1ccc(O)cc1)c1c(O)cc(O)cc1O [phlor, phloretin]
